According to patent publication US20220098203A1 (priority 2018, published 2022):
Like-named read-outs stand apart in the source and are kept apart here.

Target: T1, MAT2A homodimer (Homo sapiens, UniProt P31153)
T1 construct: inferred from the Ni sepharose purification and imidazole elution; made in house; host or cells: SF9 insect cells, recombinant baculovirus (Bac to Bac, pFASTBAC1)
Test: MAT2A biochemical assay (liberated phosphate, PiColorLock Gold)
Details: read-out: Enzyme Inhibition
Protocol: Mat2A protein was expressed by recombinant baculovirus in SF9 infected cells using the Bac to Bac system cloned into the pFASTBAC1 vector (Invitrogen, Carlsbad, Calif.). Recombinant MAT2A was isolated from the cell lysate of 150 g of infected cells using HP Ni sepharose column chromatography. Recombinant MAT2A homodimer was eluted with 250 and 500 mM imidazole, and fractions containing MAT2A were identified by sodium dodecyl sulfate polyacrylamide gel electrophoresis and pooled.
Test compound was prepared in 100% dimethyl sulfoxide (DMSO) at 50× the desired final concentration. A 1 μL volume of compound dilution was added to 40 μL of enzyme dilution and the mixture was allowed to equilibrate for 60 minutes at 25° C. The enzymatic assay was initiated by the addition of 10 μL of substrate mix (500 μM ATP, pH 7.0, 400 μM L-methionine in 1× assay buffer), and the mixture was incubated for a further 60 minutes at 25° C. The reaction was halted and the liberated phosphate released by the enzyme in stoichiometric amounts by the production of S-adenosyl methionine (SAM) was measured using the PiColorLock Gold kit (Innova Biosciences, UK). Absolute product amounts were determined by comparison to a standard curve of potassium phosphate buffer, pH 8.0.

[1] = Table 5a, MAT2A biochemical assay

T1 sequence (P31153 whole entry): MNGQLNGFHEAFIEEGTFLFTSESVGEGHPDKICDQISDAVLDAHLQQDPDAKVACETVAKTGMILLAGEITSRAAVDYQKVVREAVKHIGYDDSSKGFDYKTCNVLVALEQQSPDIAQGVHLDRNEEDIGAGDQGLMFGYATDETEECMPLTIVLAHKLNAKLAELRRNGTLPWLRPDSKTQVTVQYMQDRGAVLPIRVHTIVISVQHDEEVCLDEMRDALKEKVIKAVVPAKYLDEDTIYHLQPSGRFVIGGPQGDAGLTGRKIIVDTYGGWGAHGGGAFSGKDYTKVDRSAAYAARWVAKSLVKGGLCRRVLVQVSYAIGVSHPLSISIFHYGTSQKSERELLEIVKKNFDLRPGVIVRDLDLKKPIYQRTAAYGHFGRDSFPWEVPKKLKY

SMILES	IC50 [1]	IC50 (Table 5b, Additional Examples)
COc1ccc(N2Cc3cnc(SC)nc3N(c3ccc(C)cc3)C2=O)cc1 [Example 244, 3-(4-methoxyphenyl)-7-(methylthio)-1-(p-tolyl)-3,4-dihydropyrimido[4,5-d]pyrimidin-2(1H)-one]	1000 to 10000 nM	
[2H]C([2H])([2H])Oc1ccc(N2C(=O)N(c3ccc4nn(C)cc4c3)C(C)c3ccc(OCC(F)F)nc32)cc1 (stereo not shown) [Example 286, 7-(2,2-difluoroethoxy)-1-(4-(methoxy-d3)phenyl)-4-methyl-3-(2-methyl-2H-indazol-5-yl)-3,4-dihydropyrido[2,3-d]pyrimidin-2(1H)-one]	100 to 1000 nM	
COc1ccc(N2Cc3cnc(NCC(F)(F)F)nc3N(c3ccc(O)nc3)C2=O)cc1 [Example 197, 1-(6-hydroxypyridin-3-yl)-3-(4-methoxyphenyl)-7-((2,2,2-trifluoroethyl)amino)-3,4-dihydropyrimido[4,5-d]pyrimidin-2(1H)-one]	1000 to 10000 nM	
COc1ccc(N2Cc3cnc(NCC(F)(F)F)nc3N(c3ccc4ncccc4c3)C2=O)cc1 [Example 240]	100 to 1000 nM	
COc1ccc(N2Cc3cnc(NCC(F)(F)F)nc3N(c3ccc(S(C)(=O)=O)cc3)C2=O)cc1 [Example 189, 3-(4-methoxyphenyl)-1-(4-(methylsulfonyl)phenyl)-7-((2,2,2-trifluoroethyl)amino)-3,4-dihydropyrimido[4,5-d]pyrimidin-2(1H)-one]	100 to 1000 nM	
COc1ccc(N2Cc3cnc(NCC(F)(F)F)nc3N(c3ccnnc3)C2=O)cc1		> 10000 nM
COc1ccc(-n2c(=O)c3cnc(S(C)(=O)=O)nc3n(-c3ccc(OCc4ccccc4)cc3)c2=O)cc1		> 10000 nM
COc1ccc(N2Cc3cnc(NCC(F)(F)F)nc3N(c3cn[nH]c3)C2=O)cc1 [Example 194, 3-(4-methoxyphenyl)-1-(1H-pyrazol-4-yl)-7-((2,2,2-trifluoroethyl)amino)-3,4-dihydropyrimido[4,5-d]pyrimidin-2(1H)-one]	1000 to 10000 nM	
COc1ccc(N2Cc3cnc(NCC(F)(F)F)nc3N(c3ccc(O)cc3)C2=O)cc1 [Example 249, 1-(4-hydroxyphenyl)-3-(4-methoxyphenyl)-7-((2,2,2-trifluoroethyl)amino)-3,4-dihydropyrimido[4,5-d]pyrimidin-2(1H)-one]	100 to 1000 nM	
CNC(=O)c1ccc(N2C(=O)N(c3ccc(OC)cc3)Cc3cnc(NCC(F)(F)F)nc32)cc1 [Example 277, 4-(3-(4-methoxyphenyl)-2-oxo-7-((2,2,2-trifluoroethyl)amino)-3,4-dihydropyrimido[4,5-d]pyrimidin-1(2H)-yl)-N-methylbenzamide]	1000 to 10000 nM	
COc1ccc(N2Cc3cnc(NCC(F)(F)F)nc3N(c3ccc4c(c3)CCO4)C2=O)cc1 [Example 253, 1-(2,3-dihydrobenzofuran-5-yl)-3-(4-methoxyphenyl)-7-((2,2,2-trifluoroethyl)amino)-3,4-dihydropyrimido[4,5-d]pyrimidin2(1H)-one]	100 to 1000 nM	
Cn1cc2cc(N3Cc4cc(Cl)c(OCC(F)F)cc4N(c4ccc(OC(F)F)cc4)C3=O)ccc2n1 [Example 284, 6-chloro-7-(2,2-difluoroethoxy)-1-(4-(difluoromethoxy)phenyl)-3-(2-methyl-2H-indazol-5-yl)-3,4-dihydroquinazolin-2(1H)-one]	100 to 1000 nM	
COc1ccc(N2Cc3cnc(NCC4CC4)nc3N(c3ccncc3)C2=O)cc1 [Example 266]	1000 to 10000 nM	
COc1ccc(N2Cc3cnc(NCC(F)(F)F)nc3N(c3ccc(-c4ccsn4)cc3)C2=O)cc1 [Example 207, 1-(4-(isothiazol-3-yl)phenyl)-3-(4-methoxyphenyl)-7-((2,2,2-trifluoroethyl)amino)-3,4-dihydropyrimido[4,5-d]pyrimidin-2(1H)-one]	1000 to 10000 nM	
COc1ccc(N2Cc3cnc(NCC4CC4)nc3N(c3ccc(OC)cc3)C2=O)cc1 [Example 267]	100 to 1000 nM	
COc1ccc(N2C(=O)N(c3ccc4nn(C)cc4c3)Cc3ccc(N(C)C)nc32)cc1 [Example 160, 7-(dimethylamino)-1-(4-methoxyphenyl)-3-(2-methyl-2H-indazol-5-yl)-3,4-dihydropyrido[2,3-d]pyrimidin-2(1H)-one]	100 to 1000 nM	
COc1ccc(N2Cc3cnc(NCC4CC4)nc3N(c3ccc(O)cc3)C2=O)cc1 [Example 265]	1000 to 10000 nM	
CCN(CC)c1ccc2c(n1)N(c1ccc(OC)cc1)C(=O)N(c1ccc3nn(C)cc3c1)C2 [Example 159, 7-(diethylamino)-1-(4-methoxyphenyl)-3-(2-methyl-2H-indazol-5-yl)-3,4-dihydropyrido[2,3-d]pyrimidin-2(1H)-one]	1000 to 10000 nM	
COc1ccc(-n2c(=O)c3cnc(SC)nc3n(-c3ccc(OCc4ccccc4)cc3)c2=O)cc1		> 10000 nM
COc1ccc(-n2c(=O)c3cnc(NCC(F)(F)F)nc3n(-c3ccc(O)cc3)c2=O)cc1 [Example 262, 1-(4-hydroxyphenyl)-3-(4-methoxyphenyl)-7-((2,2,2-trifluoroethyl)amino)pyrimido[4,5-d]pyrimidine-2,4(1H,3H)-dione]	100 to 1000 nM	
COc1ccc(N2C(=O)N(c3ccc4nn(C)cc4c3)Cc3cnc(NC4CCCC4)nc32)cc1		100 to 1000 nM
COc1ccc(N2Cc3cnc(NCC(F)(F)F)nc3N(C3CCNC(=O)C3)C2=O)cc1 (stereo not shown)		> 10000 nM
COc1ccc(N2Cc3cnc(NCC(F)(F)F)nc3N(S(C)(=O)=O)C2=O)cc1		> 10000 nM

Results, then the molecule that gave them:

IC50 [1]	IC50 (Table 5b, Additional Examples)	SMILES
100 to 1000 nM		COc1ccc(N2C(=O)N(c3ccc(OC)cn3)Cc3cnc(NCC(F)(F)F)nc32)cc1 [Example 238, 1-(4-methoxyphenyl)-3-(5-methoxypyridin-2-yl)-7-((2,2,2-trifluoroethyl)amino)-3,4-dihydropyrimido[4,5-d]pyrimidin-2(1H)-one]
< 100 nM		Cc1ccc(N2C(=O)N(c3ccc4nn(C)cc4c3)Cc3cnc(NCC(F)(F)F)nc32)cn1 [Example 433, 3-(2-methyl-2H-indazol-5-yl)-1-(6-methylpyridin-3-yl)-7-((2,2,2-trifluoroethyl)amino)-3,4-dihydropyrimido[4,5-d]pyrimidin-2(1H)-one]
< 100 nM		Cn1cc2cc(N3Cc4cnc(OCC(F)(F)F)nc4N(c4ccc(-c5nc[nH]n5)cc4)C3=O)ccc2n1 [Example 191, 1-(4-(1H-1,2,4-triazol-3-yl)phenyl)-3-(2-methyl-2H-indazol-5-yl)-7-(2,2,2-trifluoroethoxy)-3,4-dihydropyrimido[4,5-d]pyrimidin-2(1H)-one]
100 to 1000 nM		Cn1cc2cc(N3Cc4ccc(OCC(F)F)nc4N(c4ccc5ncn(C)c5c4)C3=O)ccc2n1 [Example 173, 7-(2,2-difluoroethoxy)-1-(1-methyl-1H-benzo[d]imidazol-6-yl)-3-(2-methyl-2H-indazol-5-yl)-3,4-dihydropyrido[2,3-d]pyrimidin-2(1H)-one]
	> 10000 nM	COc1ccc(-n2c(=O)c3cnc(NCC(F)(F)F)nc3n(-c3ccc(OCc4ccccc4)cc3)c2=O)cc1
	> 10000 nM	COc1ccc(N2Cc3cnc(NCC(F)(F)F)nc3N(c3ccc(Cl)c(C(F)(F)F)c3)C2=O)cc1
100 to 1000 nM		COc1ccc(N2Cc3cnc(NCC(F)(F)F)nc3N(c3ccc(C)cc3)C2=O)cc1 [Example 243, 3-(4-methoxyphenyl)-1-(p-tolyl)-7-((2,2,2-trifluoroethyl)amino)-3,4-dihydropyrimido[4,5-d]pyrimidin-2(1H)-one]
100 to 1000 nM		COc1ccc(N2Cc3cnc(NCC(F)(F)F)nc3N(c3ccc(-c4cn[nH]c4)cc3)C2=O)cc1 [Example 211, 1-(4-(1H-pyrazol-4-yl)phenyl)-3-(4-methoxyphenyl)-7-((2,2,2-trifluoroethyl)amino)-3,4-dihydropyrimido[4,5-d]pyrimidin-2(1H)-one]
100 to 1000 nM		COc1ccc(N2C(=O)N(c3ccc4nn(C)cc4c3)Cc3ccc(N4CCOCC4)nc32)cc1 [Example 157, 1-(4-methoxyphenyl)-3-(2-methyl-2H-indazol-5-yl)-7-morpholino-3,4-dihydropyrido[2,3-d]pyrimidin-2(1H)-one]
100 to 1000 nM		COc1ccc(N2Cc3cnc(NCC(F)(F)F)nc3N(c3ccc(-c4cc[nH]c4)cc3)C2=O)cc1 [Example 280, 1-(4-(1H-pyrrol-3-yl)phenyl)-3-(4-methoxyphenyl)-7-((2,2,2-trifluoroethyl)amino)-3,4-dihydropyrimido[4,5-d]pyrimidin-2(1H)-one]
	> 10000 nM	COc1ccc(N2Cc3cnc(-n4ccnc4)nc3N(c3ccc(O)cc3)C2=O)cc1
< 100 nM		COc1ccc(N2C(=O)N(c3ccncc3)Cc3cnc(NCC(F)(F)F)nc32)cc1 [Example 230, 1-(4-methoxyphenyl)-3-(pyridin-4-yl)-7-((2,2,2-trifluoroethyl)amino)-3,4-dihydropyrimido[4,5-d]pyrimidin-2(1H)-one]
	100 to 1000 nM	COc1ccc(N2Cc3cnc(NCC(F)(F)F)nc3N(c3ccc(C(C)(C)CO)cc3)C2=O)cc1
100 to 1000 nM		[2H]C([2H])([2H])Oc1ccc(N2C(=O)N(c3ccc4nn(C)cc4c3)Cc3ccc(OCCC(F)(F)F)nc32)cc1 [Example 166, 1-(4-methoxy-d3-phenyl)-3-(2-methyl-2H-indazol-5-yl)-7-(3,3,3-trifluoropropoxy)-3,4-dihydropyrido[2,3-d]pyrimidin-2(1H)-one]
	> 10000 nM	CCOc1ccc2c(n1)N(c1ccc(OC)cc1)C(=O)N(c1ccc(Cl)cc1)C2
100 to 1000 nM		Cn1cc2cc(N3Cc4nnc(NCC(F)(F)F)cc4N(c4ccc(OC(F)F)cc4)C3=O)ccc2n1 [Example 293]
	> 10000 nM	COc1ccc(N2Cc3cnc(NCC(F)(F)F)nc3N(c3ncc(OC)cn3)C2=O)cc1
